These results are taken from patent US20260185118A1 (priority 2023, published 2026).

The test system of the test is Diaphorina citri Kuwayama. In kind it is in vivo. To be noted: solution at 1 μg/L in n-hexane applied to citrus leaves, compared to solvent n-hexane, 40 min.

Turning to `C=C1CC/C=C(\C)CC[C@@H]2[C@@H]1CC2(C)C` [β-caryophyllene], the “effect on Diaphorina citri Kuwayama selection preference” value was “significant repulsive effect”.
Take (E)-β-farnesene: the “effect on Diaphorina citri Kuwayama selection preference” value is given as “significant repulsive effect”.
